Target: T1, Protein cereblon [318-426] (UniProt Q96SW2)
T1 construct: 318-426
Test: Measurement of Molecular Interactions Using Surface Plasmon Resonance (SPR)
Method: The instrument used was the Biacore T200 (manufactured by Cytiva). […] The sensor chip used was Sensor Chip SA (manufactured by Cytiva). The CRBN truncate was immobilized using the affinity between SA (streptavidin) on the sensor chip and the Avi-tag. The running buffer was a mixture of 10 mM HEPES pH 7.5, 150 mM NaCl, 1 mM TCEP, 0.005% Tween 20, and 2% DMSO. […] Contact time and dissociation time were set at 60 seconds and 120 seconds, respectively.

T1 sequence (Q96SW2 318-426): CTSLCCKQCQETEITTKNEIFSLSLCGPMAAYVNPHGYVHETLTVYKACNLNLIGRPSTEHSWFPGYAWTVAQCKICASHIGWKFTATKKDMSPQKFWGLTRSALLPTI

Row | SMILES | Kd
1 | CC(C)(C)OC(=O)C1=CC(C2CCCC(=O)NC2=O)CC=C1 (stereo unspecified) [US20250388593, Example 60] | in the range around 75 µM
2 | Cn1nc(N2CC=CC(=O)NC2=O)c2ccc(C3CCN(C(=O)OC(C)(C)C)CC3)cc21 [US20250388593, Example 282] | > 100 µM
3 | CC(C)(C)OC(=O)NCCCCCCCNc1ccc(N2CCC3(CCCC(=O)NC3=O)CC2=O)cc1 (stereo unspecified) [US20250388593, Example 304] | > 100 µM
4 | O=C1CCCC(c2cc([N+](=O)[O-])ccc2Cl)C(=O)N1 (stereo unspecified) [US20250388593, Example 63] | > 100 µM
5 | Cn1c(=O)n(C2CCCC(=O)NC2=O)c2ccc(CCCCCCCC(=O)OC(C)(C)C)cc21 (stereo unspecified) [US20250388593, Example 216] | > 100 µM
6 | O=C1CCCC(N2C(=O)OCC3=C2C=CC([N+](=O)[O-])C3)C(=O)N1 (stereo unspecified) [US20250388593, Example 274] | > 100 µM
7 | COC(=O)C(CCCCNC(=O)OCc1ccccc1)Oc1ccccc1[N+](=O)[O-] (stereo unspecified) [US20250388593, Example 66-1] | > 100 µM
8 | CC(C)(C)OC(=O)CCCCCNc1ccc(N2CCC3(CCCC(=O)NC3=O)CC2=O)cc1 (stereo unspecified) [US20250388593, Example 301] | > 100 µM
9 | O=C1CCCC(C2=CC([N+](=O)[O-])CC=C2)C(=O)N1 (stereo unspecified) [US20250388593, Example 62] | > 100 µM

Further lines, results first:

Row | Kd | SMILES
10 | < 50 µM | Cn1c(=O)n(C2CCCC(=O)NC2=O)c2cccc(CCC(=O)OC(C)(C)C)c21 (stereo unspecified) [US20250388593, Example 213]
11 | > 100 µM | CC(C)(C)OC(=O)CCCCCNc1ccc(N2CCC(N3CCCC(=O)NC3=O)C2=O)cc1 (stereo unspecified) [US20250388593, Example 302]
12 | > 100 µM | CC(C)(C)OC(=O)CCCCCNc1cccc(C2CCCC(=O)NC2=O)c1 (stereo unspecified) [US20250388593, Example 298]
13 | < 50 µM | CC(C)(C)OC(=O)CCc1nn(C2CCCC(=O)NC2=O)c2ccccc12 (stereo unspecified) [US20250388593, Example 137]
14 | > 100 µM | Cn1c(=O)n(C2CCCC(=O)NC2=O)c2ccc(C#CCCCCCC(=O)OC(C)(C)C)cc21 (stereo unspecified) [US20250388593, Example 215]
15 | > 100 µM | CN(C1CCCC(=O)NC1=O)S(=O)(=O)c1ccc(CCCCC(=O)OC(C)(C)C)cc1 (stereo unspecified) [US20250388593, Example 279]
16 | > 100 µM | CC(C)(C)OC(=O)CN1CCC2(CCCC(=O)NC2=O)CC1=O (stereo unspecified) [US20250388593, Example 107]
17 | > 100 µM | Cn1c(=O)n(C2CCCC(=O)NC2=O)c2cccc(CCCCCCCC(=O)OC(C)(C)C)c21 (stereo unspecified) [US20250388593, Example 207]
18 | > 100 µM | CC(C)(C)OC(=O)N1CCN(C(=O)CN2CCC3(CCCC(=O)NC3=O)CC2=O)CC1 (stereo unspecified) [US20250388593, Example 98]
19 | < 50 µM | CC(=O)Nc1ccc2nc(N3CCCC(=O)NC3=O)sc2c1 [US20250388593, Example 119]
20 | > 100 µM | CC(C)(C)OC(=O)N1CCC(c2ccc(OC3CCCCNC3=O)cc2)CC1 (stereo unspecified) [US20250388593, Example 276]
21 | < 50 µM | Cn1c(=O)n(C2CCCC(=O)NC2=O)c2ccc(CCCCC(=O)OC(C)(C)C)cc21 (stereo unspecified) [US20250388593, Example 217]

From BindingDB's records for patent US20250388593 (Mitsubishi Tanabe Pharma, 2025)
